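GI50 marks 50% less growth. TGI denotes the concentration required for complete inhibition of growth.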
How the values were obtained:
Test in all cases: NCI tumour cell line growth inhibition, 384-well format
OVCAR-4 ovarian = tested on: OVCAR-4 ovarian
EKVX NSCLC = tested on: EKVX NSCLC
SF-295 CNS = tested on: SF-295 CNS
UACC-62 melanoma = tested on: UACC-62 melanoma
A549 NSCLC = tested on: A549 NSCLC
SW-620 colon = tested on: SW-620 colon
SK-MEL-2 melanoma = tested on: SK-MEL-2 melanoma
HCT-15 colon = tested on: HCT-15 colon
HL-60(TB) leukemia = tested on: HL-60(TB) leukemia
HS 578T breast = tested on: HS 578T breast
HOP-92 NSCLC = tested on: HOP-92 NSCLC
T-47D breast = tested on: T-47D breast
A498 renal = tested on: A498 renal
DU-145 prostate = tested on: DU-145 prostate
UO-31 renal = tested on: UO-31 renal
HCT-116 colon = tested on: HCT-116 colon
NCI-H460 NSCLC = tested on: NCI-H460 NSCLC
ACHN renal = tested on: ACHN renal
OVCAR-5 ovarian = tested on: OVCAR-5 ovarian
SK-OV-3 ovarian = tested on: SK-OV-3 ovarian
SR leukemia = tested on: SR leukemia
KM12 colon = tested on: KM12 colon
SF-539 CNS = tested on: SF-539 CNS
SNB-19 CNS = tested on: SNB-19 CNS
OVCAR-8 ovarian = tested on: OVCAR-8 ovarian
MDA-MB-231 breast = tested on: MDA-MB-231 breast
NCI-H522 lung = tested on: NCI-H522 lung
NCI-H322M lung = tested on: NCI-H322M lung
M14 melanoma = tested on: M14 melanoma
786-0 renal = tested on: 786-0 renal
SK-MEL-28 melanoma = tested on: SK-MEL-28 melanoma
NCI-H226 lung = tested on: NCI-H226 lung
SNB-75 CNS = tested on: SNB-75 CNS
RXF 393 renal = tested on: RXF 393 renal
HOP-62 NSCLC = tested on: HOP-62 NSCLC
MOLT-4 leukemia = tested on: MOLT-4 leukemia
NCI-H23 lung = tested on: NCI-H23 lung
SK-MEL-5 melanoma = tested on: SK-MEL-5 melanoma
UACC-257 melanoma = tested on: UACC-257 melanoma
MDA-MB-468 breast = tested on: MDA-MB-468 breast
PC-3 prostate = tested on: PC-3 prostate
BT-549 breast = tested on: BT-549 breast
TK-10 renal = tested on: TK-10 renal
OVCAR-3 ovarian = tested on: OVCAR-3 ovarian
K-562 leukemia = tested on: K-562 leukemia
IGROV1 ovarian = tested on: IGROV1 ovarian
HT29 colon = tested on: HT29 colon
CAKI-1 renal = tested on: CAKI-1 renal
MALME-3M melanoma = tested on: MALME-3M melanoma
SN12C renal = tested on: SN12C renal
U251 glioblastoma = tested on: U251 glioblastoma
COLO 205 colon = tested on: COLO 205 colon
MCF7 breast = tested on: MCF7 breast
MDA-MB-435 melanoma = tested on: MDA-MB-435 melanoma
SF-268 CNS = tested on: SF-268 CNS
LOX IMVI melanoma = tested on: LOX IMVI melanoma
RPMI-8226 leukemia = tested on: RPMI-8226 leukemia
NCI/ADR-RES ovarian = tested on: NCI/ADR-RES ovarian
HCC-2998 colon = tested on: HCC-2998 colon
CCRF-CEM leukemia = tested on: CCRF-CEM leukemia

## CCc1cc2c(c(OCC(F)(F)F)c(C(=O)NC3CCN(C(=O)CO)CC3)n2C)c(=O)n1CC(=O)c1ccccc1
OVCAR-4 ovarian
  GI50: 37.1 µM
  TGI: > 100 µM
EKVX NSCLC
  GI50: 40.3 µM
  TGI: > 100 µM
SF-295 CNS
  GI50: 24.9 µM
  TGI: 98.7 µM
UACC-62 melanoma
  GI50: 32.6 µM
  TGI: > 100 µM
A549 NSCLC
  GI50: 46.8 µM
  TGI: > 100 µM
SW-620 colon
  GI50: 57 µM
  TGI: > 100 µM
SK-MEL-2 melanoma
  GI50: 30.1 µM
  TGI: > 100 µM
HCT-15 colon
  GI50: 61.9 µM
  TGI: > 100 µM
HL-60(TB) leukemia
  GI50: 25.3 µM
  TGI: 40.7 µM
HS 578T breast
  GI50: 37.7 µM
  TGI: > 100 µM
HOP-92 NSCLC
  GI50: 58.6 µM
  TGI: > 100 µM
T-47D breast
  GI50: 29.9 µM
  TGI: > 100 µM
A498 renal
  GI50: 33.6 µM
  TGI: > 100 µM
DU-145 prostate
  GI50: 82.5 µM
  TGI: > 100 µM
UO-31 renal
  GI50: 19.7 µM
  TGI: 51.6 µM
HCT-116 colon
  GI50: 35.6 µM
  TGI: > 100 µM
NCI-H460 NSCLC
  GI50: 27.5 µM
  TGI: > 100 µM
ACHN renal
  GI50: 31.6 µM
  TGI: > 100 µM
OVCAR-5 ovarian
  GI50: > 100 µM
  TGI: > 100 µM
SK-OV-3 ovarian
  GI50: 45.8 µM
  TGI: > 100 µM
SR leukemia
  GI50: 17.3 µM
  TGI: 31.4 µM
KM12 colon
  GI50: 42.4 µM
  TGI: > 100 µM
SF-539 CNS
  GI50: 37.8 µM
  TGI: > 100 µM
SNB-19 CNS
  GI50: > 100 µM
  TGI: > 100 µM
OVCAR-8 ovarian
  GI50: 54.2 µM
  TGI: > 100 µM
MDA-MB-231 breast
  GI50: 37.7 µM
  TGI: > 100 µM
NCI-H522 lung
  GI50: 69.8 µM
  TGI: > 100 µM
NCI-H322M lung
  GI50: 72.6 µM
  TGI: > 100 µM
M14 melanoma
  GI50: > 100 µM
  TGI: > 100 µM
786-0 renal
  GI50: 18.4 µM
  TGI: 36.6 µM
SK-MEL-28 melanoma
  GI50: 38.9 µM
  TGI: > 100 µM
NCI-H226 lung
  GI50: 22.4 µM
  TGI: > 100 µM
SNB-75 CNS
  GI50: 54.9 µM
  TGI: > 100 µM
RXF 393 renal
  GI50: 1.91 µM
  TGI: 12.4 µM
HOP-62 NSCLC
  GI50: 28.2 µM
  TGI: > 100 µM
MOLT-4 leukemia
  GI50: 18.3 µM
  TGI: 34.6 µM
NCI-H23 lung
  GI50: 79.9 µM
  TGI: > 100 µM
SK-MEL-5 melanoma
  GI50: 23.2 µM
  TGI: > 100 µM
UACC-257 melanoma
  GI50: 68.8 µM
  TGI: > 100 µM
MDA-MB-468 breast
  GI50: 20.6 µM
  TGI: 79.2 µM
PC-3 prostate
  GI50: 42.1 µM
  TGI: > 100 µM
BT-549 breast
  GI50: 57.9 µM
  TGI: > 100 µM
TK-10 renal
  GI50: 33.9 µM
  TGI: > 100 µM
OVCAR-3 ovarian
  GI50: 40 µM
  TGI: > 100 µM
K-562 leukemia
  GI50: 33.6 µM
  TGI: > 100 µM
IGROV1 ovarian
  GI50: 58.2 µM
  TGI: > 100 µM
HT29 colon
  GI50: 41.7 µM
  TGI: > 100 µM
CAKI-1 renal
  GI50: 39.6 µM
  TGI: > 100 µM
MALME-3M melanoma
  GI50: 73.9 µM
  TGI: > 100 µM
SN12C renal
  GI50: > 100 µM
  TGI: > 100 µM
U251 glioblastoma
  GI50: 52.6 µM
  TGI: > 100 µM
COLO 205 colon
  GI50: > 100 µM
  TGI: > 100 µM
MCF7 breast
  GI50: 9.23 µM
  TGI: > 100 µM
MDA-MB-435 melanoma
  GI50: > 100 µM
  TGI: > 100 µM
SF-268 CNS
  GI50: 68.8 µM
  TGI: > 100 µM

## CCOC(=O)c1c(NN2CCN(CC(F)(F)F)CC2)oc(/C=C2\C=Nc3ncccc32)c1O
OVCAR-4 ovarian
  GI50: 96.1 µM
  TGI: > 100 µM
EKVX NSCLC
  GI50: 7.51 µM
  TGI: > 100 µM
UACC-62 melanoma
  GI50: 2.12 µM
  TGI: 3.96 µM
A549 NSCLC
  GI50: 5.31 µM
  TGI: > 100 µM
SK-MEL-2 melanoma
  GI50: 2.62 µM
  TGI: 4.86 µM
HCT-15 colon
  GI50: 5.2 µM
  TGI: > 100 µM
HL-60(TB) leukemia
  GI50: 1.18 µM
  TGI: 2.41 µM
HS 578T breast
  GI50: 1.55 µM
  TGI: 3.21 µM
HOP-92 NSCLC
  GI50: > 100 µM
  TGI: > 100 µM
T-47D breast
  GI50: > 100 µM
  TGI: > 100 µM
A498 renal
  GI50: 2.75 µM
  TGI: > 100 µM
DU-145 prostate
  GI50: 3.08 µM
  TGI: > 100 µM
NCI-H460 NSCLC
  GI50: 2.23 µM
  TGI: 4.4 µM
ACHN renal
  GI50: 5.86 µM
  TGI: > 100 µM
LOX IMVI melanoma
  GI50: 3.14 µM
  TGI: 9.61 µM
SK-OV-3 ovarian
  GI50: 2.72 µM
  TGI: > 100 µM
SR leukemia
  GI50: 0.222 µM
  TGI: 0.488 µM
KM12 colon
  GI50: 3.28 µM
  TGI: 8.02 µM
SF-539 CNS
  GI50: 2.84 µM
  TGI: 9.8 µM
SNB-19 CNS
  GI50: 8.03 µM
  TGI: > 100 µM
OVCAR-8 ovarian
  GI50: 5.48 µM
  TGI: > 100 µM
MDA-MB-231 breast
  GI50: 5.8 µM
  TGI: > 100 µM
NCI-H522 lung
  GI50: 1.14 µM
  TGI: > 100 µM
NCI-H322M lung
  GI50: 4.05 µM
  TGI: > 100 µM
RPMI-8226 leukemia
  GI50: 1.96 µM
  TGI: 4.22 µM
M14 melanoma
  GI50: 3.36 µM
  TGI: 10.5 µM
NCI/ADR-RES ovarian
  GI50: > 100 µM
  TGI: > 100 µM
786-0 renal
  GI50: 3.39 µM
  TGI: 8.44 µM
SK-MEL-28 melanoma
  GI50: 5.23 µM
  TGI: 16.7 µM
SNB-75 CNS
  GI50: 6.66 µM
  TGI: 18.9 µM
RXF 393 renal
  GI50: 1.94 µM
  TGI: 3.91 µM
HOP-62 NSCLC
  GI50: 2.86 µM
  TGI: 9.4 µM
MOLT-4 leukemia
  GI50: 1.88 µM
  TGI: 3.37 µM
NCI-H23 lung
  GI50: 4.83 µM
  TGI: 18.5 µM
HCC-2998 colon
  GI50: 1.61 µM
  TGI: 6.01 µM
SK-MEL-5 melanoma
  GI50: 2.67 µM
  TGI: 14.9 µM
UACC-257 melanoma
  GI50: 17.4 µM
  TGI: 36.2 µM
MDA-MB-468 breast
  GI50: 3.2 µM
  TGI: 9.71 µM
PC-3 prostate
  GI50: 3.64 µM
  TGI: > 100 µM
BT-549 breast
  GI50: 2.44 µM
  TGI: 5.08 µM
TK-10 renal
  GI50: > 100 µM
  TGI: > 100 µM
OVCAR-3 ovarian
  GI50: 2.82 µM
  TGI: > 100 µM
CCRF-CEM leukemia
  GI50: 0.911 µM
  TGI: 2.31 µM
HT29 colon
  GI50: 2.5 µM
  TGI: > 100 µM
CAKI-1 renal
  GI50: 3.83 µM
  TGI: > 100 µM
MALME-3M melanoma
  GI50: 3.05 µM
  TGI: 9.54 µM
SN12C renal
  GI50: 5.42 µM
  TGI: > 100 µM
U251 glioblastoma
  GI50: 2.76 µM
  TGI: > 100 µM
COLO 205 colon
  GI50: 0.373 µM
  TGI: 3.37 µM
MCF7 breast
  GI50: 3.69 µM
  TGI: 10.2 µM
MDA-MB-435 melanoma
  GI50: 10.8 µM
  TGI: 29.4 µM
SF-268 CNS
  GI50: 4.06 µM
  TGI: 11.6 µM
